Assay results from ChEMBL document CHEMBL1144565, “Anti-breast cancer activity of LFM-A13, a potent inhibitor of Polo-like kinase (PLK)” (Bioorg Med Chem, 2007).
Calls of active or inactive are those of the source. The rule behind the calls is not given here.

How the values were obtained:
Rattus norvegicus [1] = assay: Effect on non-proliferating tissue in iv dosed Lewis rat assessed as toxic lesions in lung on day 7; format: ADME, organism-based; settings: in vivo
Rattus norvegicus [2] = assay: Effect on non-proliferating tissue in iv dosed Lewis rat assessed as toxic lesions in kidney on day 7; format: ADME, organism-based; settings: in vivo
[3] = molecular target: T1, Serine/threonine-protein kinase PLK3 (Homo sapiens, UniProt Q9H4B4); assay: Inhibition of human PLK3
Mus musculus [4] = assay: Acute toxicity in CD1 mouse assessed as WBC counts at 80 mg/kg, ip after 7 days; format: organism-based; parameters: dose 80 mg/kg, route intraperitoneal; settings: in vivo, 168 h
Mus musculus [5] = assay: Acute toxicity in CD1 mouse assessed as absolute lymphocyte counts at 80 mg/kg, ip after 7 days; format: organism-based; parameters: dose 80 mg/kg, route intraperitoneal; settings: in vivo, 168 h
[6] = molecular target: Insulin-like growth factor 1 receptor (Homo sapiens, UniProt P08069); assay: Inhibition of IGF1R
Mus musculus [7] = assay: Subacute toxicity in CD1 mouse assessed as WBC counts at 20 mg/kg, ip after 30 days; format: organism-based; parameters: dose 20 mg/kg, route intraperitoneal; settings: in vivo, 720 h
Rattus norvegicus [8] = assay: Toxicity in Lewis rat assessed as absolute neutrophil counts at 20 mg/kg, iv after 7 days; format: organism-based; parameters: dose 20 mg/kg, route intravenous; settings: in vivo, 168 h
Rattus norvegicus [9] = assay: Toxicity in Lewis rat assessed as WBC counts at 40 mg/kg, iv after 7 days; format: organism-based; parameters: dose 40 mg/kg, route intravenous; settings: in vivo, 168 h
[10] = molecular target: Tyrosine-protein kinase Yes (Homo sapiens, UniProt P07947); assay: Inhibition of YES kinase
BT-20 = assay: Induction of aberrant monopolar and multipolar spindle formation in human BT20 cells assessed as at 100 uM; format: functional, cell-based
Mus musculus [11] = assay: Acute toxicity in CD1 mouse assessed as absolute neutrophil counts at 40 mg/kg, ip after 7 days; format: organism-based; parameters: dose 40 mg/kg, route intraperitoneal; settings: in vivo, 168 h
Mus musculus [12] = assay: Acute toxicity in CD1 mouse assessed as WBC counts at 10 mg/kg, ip after 7 days; format: organism-based; parameters: dose 10 mg/kg, route intraperitoneal; settings: in vivo, 168 h
[13] = molecular target: T1, Serine/threonine-protein kinase PLK3; assay: Inhibition of human PLK3 in presence of 75 uM ATP
Rattus norvegicus [14] = assay: Toxicity in Lewis rat assessed as WBC counts at 80 mg/kg, iv after 7 days; format: organism-based; parameters: dose 80 mg/kg, route intravenous; settings: in vivo, 168 h
[15] = molecular target: Phosphatidylinositol 4,5-bisphosphate 3-kinase catalytic subunit gamma isoform (Homo sapiens, UniProt P48736); assay: Inhibition of PI3Kgamma
Rattus norvegicus [16] = assay: Effect on non-proliferating tissue in iv dosed Lewis rat assessed as toxic lesions in myocardium on day 7; format: ADME, organism-based; settings: in vivo
[17] = molecular target: T1, Serine/threonine-protein kinase PLK3; assay: Inhibition of human PLK3 in presence of 50 uM ATP
Mus musculus [18] = assay: Acute toxicity in CD1 mouse assessed as WBC counts at 20 mg/kg, ip after 7 days; format: organism-based; parameters: dose 20 mg/kg, route intraperitoneal; settings: in vivo, 168 h
Mus musculus [19] = assay: Acute toxicity in CD1 mouse assessed as absolute lymphocyte counts at 10 mg/kg, ip after 7 days; format: organism-based; parameters: dose 10 mg/kg, route intraperitoneal; settings: in vivo, 168 h
[20] = molecular target: Cyclin-dependent kinase 3 (Homo sapiens, UniProt Q00526); assay: Inhibition of CDK3
PTK1 [21] = assay: Antiproliferative activity against prometaphase PTK1 cells assessed as complete arrest at 1 mM within 50 mins; format: functional, cell-based; settings: Potorous tridactylus
[22] = molecular target: Tyrosine-protein kinase Fyn (Homo sapiens, UniProt P06241); assay: Inhibition of FYN kinase
Danio rerio [23] = organism: Danio rerio; assay: Effect on cell division blockade in zebrafish egg assessed as cell fusion and lysis at 500 uM after 60 mins; format: functional, organism-based
[24] = molecular target: Tyrosine-protein kinase JAK2 (Homo sapiens, UniProt O60674); assay: Inhibition of JAK2
[25] = molecular target: Mitogen-activated protein kinase 1 (Homo sapiens, UniProt P28482); assay: Inhibition of MAPK1
[26] = molecular target: Cytoplasmic tyrosine-protein kinase BMX (Homo sapiens, UniProt P51813); assay: Inhibition of BMX kinase
Mus musculus [27] = assay: Acute toxicity in CD1 mouse assessed as absolute neutrophil counts at 10 mg/kg, ip after 7 days; format: organism-based; parameters: dose 10 mg/kg, route intraperitoneal; settings: in vivo, 168 h
Mus musculus [28] = assay: Acute toxicity in CD1 mouse assessed as myeloid or lymphoid hyperplasia in bone marrow at 40 mg/kg, ip after 7 days; format: organism-based; parameters: dose 40 mg/kg, route intraperitoneal; settings: in vivo, 168 h
Mus musculus [29] = assay: Toxicity in cumulative po dosed BALB/c mouse; format: organism-based; settings: in vivo
[30] = molecular target: Protein-tyrosine kinase 6 (Homo sapiens, UniProt Q13882); assay: Inhibition of BRK
Mus musculus [31] = assay: Subacute toxicity in CD1 mouse assessed as myeloid or lymphoid hyperplasia in bone marrow at 80 mg/kg, ip after 30 days; format: organism-based; parameters: dose 80 mg/kg, route intraperitoneal; settings: in vivo, 720 h
Mus musculus [32] = assay: Subacute toxicity in CD1 mouse assessed as absolute lymphocyte counts at 40 mg/kg, ip after 30 days; format: organism-based; parameters: dose 40 mg/kg, route intraperitoneal; settings: in vivo, 720 h
Rattus norvegicus [33] = assay: Toxicity in Lewis rat assessed as WBC counts at 20 mg/kg, iv after 7 days; format: organism-based; parameters: dose 20 mg/kg, route intravenous; settings: in vivo, 168 h
Mus musculus [34] = assay: Effect on non-proliferating tissue in po dosed BALB/c mouse assessed as toxic lesions in brain; format: ADME, organism-based; settings: in vivo
Mus musculus [35] = assay: Subacute toxicity in CD1 mouse assessed as myeloid or lymphoid hyperplasia in bone marrow at 10 mg/kg, ip after 30 days; format: organism-based; parameters: dose 10 mg/kg, route intraperitoneal; settings: in vivo, 720 h
Rattus norvegicus [36] = assay: Toxicity in Lewis rat assessed as myeloid or lymphoid hyperplasia in bone marrow at 20 mg/kg, iV after 7 days; format: organism-based; parameters: dose 20 mg/kg, route intravenous; settings: in vivo, 168 h
Mus musculus [37] = assay: Effect on non-proliferating tissue in ip dosed CD1 mouse assessed as toxic lesions in pancreas; format: ADME, organism-based; settings: in vivo
Mus musculus [38] = assay: Subacute toxicity in CD1 mouse assessed as absolute neutrophil counts at 80 mg/kg, ip after 30 days; format: organism-based; parameters: dose 80 mg/kg, route intraperitoneal; settings: in vivo, 720 h
Mus musculus [39] = assay: Subacute toxicity in CD1 mouse assessed as WBC counts at 40 mg/kg, ip after 30 days; format: organism-based; parameters: dose 40 mg/kg, route intraperitoneal; settings: in vivo, 720 h
Danio rerio [40] = organism: Danio rerio; assay: Effect on cell division blockade in zebrafish two-cell stage embryo assessed as proliferation arrest at 16-cell stage at 500 uM after 30 to 35 mins; format: functional, organism-based
Mus musculus [41] = assay: Acute toxicity in CD1 mouse assessed as absolute lymphocyte counts at 40 mg/kg, ip after 7 days; format: organism-based; parameters: dose 40 mg/kg, route intraperitoneal; settings: in vivo, 168 h
Rattus norvegicus [42] = assay: Toxicity in Lewis rat assessed as myeloid or lymphoid hyperplasia in bone marrow at 80 mg/kg, iV after 7 days; format: organism-based; parameters: dose 80 mg/kg, route intravenous; settings: in vivo, 168 h
Mus musculus [43] = assay: Acute toxicity in CD1 mouse assessed as WBC counts at 40 mg/kg, ip after 7 days; format: organism-based; parameters: dose 40 mg/kg, route intraperitoneal; settings: in vivo, 168 h
[44] = molecular target: Serine/threonine-protein kinase Chk1 (Homo sapiens, UniProt O14757); assay: Inhibition of CHK1
[45] = molecular target: Inhibitor of NF-kappa-B kinase (IKK) (Homo sapiens, UniProt O14920+O15111+Q9Y6K9); assay: Inhibition of IKK; format: protein-complex assay
PTK1 [46] = assay: Antiproliferative activity against anaphase PTK1 cells assessed as delay in mitosis completion; format: functional, cell-based; settings: Potorous tridactylus
[47] = molecular target: T1, Serine/threonine-protein kinase PLK3; assay: Inhibition of human PLK3 in presence of 100 uM ATP

T1 sequence (Q9H4B4 whole entry): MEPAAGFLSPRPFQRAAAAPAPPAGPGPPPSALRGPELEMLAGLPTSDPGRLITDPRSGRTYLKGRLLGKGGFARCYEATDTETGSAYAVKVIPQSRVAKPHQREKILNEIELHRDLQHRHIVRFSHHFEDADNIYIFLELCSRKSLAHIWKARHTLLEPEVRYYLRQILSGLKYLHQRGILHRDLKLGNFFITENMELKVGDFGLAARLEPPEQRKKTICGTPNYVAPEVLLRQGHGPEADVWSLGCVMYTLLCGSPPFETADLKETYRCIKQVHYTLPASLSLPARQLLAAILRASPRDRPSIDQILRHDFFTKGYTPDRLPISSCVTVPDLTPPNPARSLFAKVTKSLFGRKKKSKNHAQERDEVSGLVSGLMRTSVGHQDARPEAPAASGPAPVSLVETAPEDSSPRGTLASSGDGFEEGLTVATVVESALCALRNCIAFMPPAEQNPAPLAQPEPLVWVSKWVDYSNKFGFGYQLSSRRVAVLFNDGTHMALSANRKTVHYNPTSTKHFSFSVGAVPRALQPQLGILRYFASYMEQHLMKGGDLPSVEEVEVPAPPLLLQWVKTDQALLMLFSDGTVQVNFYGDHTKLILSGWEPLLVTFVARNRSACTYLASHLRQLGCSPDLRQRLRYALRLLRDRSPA
Phosphatidylinositol 4,5-bisphosphate 3-kinase catalytic subunit gamma isoform, sequence (P48736 whole entry, canonical isoform): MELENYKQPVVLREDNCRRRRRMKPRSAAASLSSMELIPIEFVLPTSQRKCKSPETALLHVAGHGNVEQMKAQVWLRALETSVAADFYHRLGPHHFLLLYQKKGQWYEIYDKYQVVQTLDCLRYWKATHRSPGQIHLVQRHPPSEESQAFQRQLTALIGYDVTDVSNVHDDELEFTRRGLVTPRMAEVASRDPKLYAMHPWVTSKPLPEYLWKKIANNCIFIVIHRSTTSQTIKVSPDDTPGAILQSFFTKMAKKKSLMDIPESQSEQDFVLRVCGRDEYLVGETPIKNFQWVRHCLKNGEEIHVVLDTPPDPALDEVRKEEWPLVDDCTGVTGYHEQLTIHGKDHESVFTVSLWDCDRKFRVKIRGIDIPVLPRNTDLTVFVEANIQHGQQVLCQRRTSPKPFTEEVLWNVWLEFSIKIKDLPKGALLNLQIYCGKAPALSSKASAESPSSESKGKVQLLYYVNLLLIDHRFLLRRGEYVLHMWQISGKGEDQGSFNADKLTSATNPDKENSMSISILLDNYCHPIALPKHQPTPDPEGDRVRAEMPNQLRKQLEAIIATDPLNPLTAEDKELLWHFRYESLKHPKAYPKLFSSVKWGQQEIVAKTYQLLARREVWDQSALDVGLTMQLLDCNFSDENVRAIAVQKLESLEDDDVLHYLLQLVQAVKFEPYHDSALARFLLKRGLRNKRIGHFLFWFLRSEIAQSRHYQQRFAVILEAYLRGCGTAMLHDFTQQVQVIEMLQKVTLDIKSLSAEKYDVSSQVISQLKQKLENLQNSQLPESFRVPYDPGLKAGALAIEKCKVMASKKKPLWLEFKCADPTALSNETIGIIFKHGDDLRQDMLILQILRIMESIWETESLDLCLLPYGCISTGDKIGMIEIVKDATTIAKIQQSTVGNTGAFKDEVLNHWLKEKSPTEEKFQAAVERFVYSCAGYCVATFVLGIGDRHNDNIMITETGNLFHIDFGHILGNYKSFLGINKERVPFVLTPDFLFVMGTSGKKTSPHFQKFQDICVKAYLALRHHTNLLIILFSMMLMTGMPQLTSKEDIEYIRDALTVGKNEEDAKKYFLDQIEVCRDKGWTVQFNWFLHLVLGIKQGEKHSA
Inhibitor of NF-kappa-B kinase (IKK), sequence (O14920 whole entry): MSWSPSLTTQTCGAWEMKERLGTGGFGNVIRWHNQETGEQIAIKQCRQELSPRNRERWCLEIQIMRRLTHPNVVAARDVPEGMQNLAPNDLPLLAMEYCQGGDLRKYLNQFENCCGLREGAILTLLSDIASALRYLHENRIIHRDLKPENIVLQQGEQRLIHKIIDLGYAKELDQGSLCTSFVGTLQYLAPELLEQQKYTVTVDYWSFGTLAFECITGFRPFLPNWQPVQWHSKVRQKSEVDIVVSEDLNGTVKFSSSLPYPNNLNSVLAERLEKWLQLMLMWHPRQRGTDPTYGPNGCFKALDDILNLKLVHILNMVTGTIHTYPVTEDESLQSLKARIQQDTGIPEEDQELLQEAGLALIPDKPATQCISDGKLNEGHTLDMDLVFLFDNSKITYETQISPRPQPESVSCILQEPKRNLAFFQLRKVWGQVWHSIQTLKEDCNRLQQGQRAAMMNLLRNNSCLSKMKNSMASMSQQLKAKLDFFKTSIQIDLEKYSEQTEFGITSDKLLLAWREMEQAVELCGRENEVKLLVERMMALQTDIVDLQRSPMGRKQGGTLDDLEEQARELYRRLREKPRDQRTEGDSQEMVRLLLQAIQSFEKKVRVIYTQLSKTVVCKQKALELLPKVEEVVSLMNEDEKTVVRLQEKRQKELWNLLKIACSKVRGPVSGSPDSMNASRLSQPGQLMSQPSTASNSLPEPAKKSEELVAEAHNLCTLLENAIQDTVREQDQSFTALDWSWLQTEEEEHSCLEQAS
Inhibitor of NF-kappa-B kinase (IKK), sequence (O15111 whole entry): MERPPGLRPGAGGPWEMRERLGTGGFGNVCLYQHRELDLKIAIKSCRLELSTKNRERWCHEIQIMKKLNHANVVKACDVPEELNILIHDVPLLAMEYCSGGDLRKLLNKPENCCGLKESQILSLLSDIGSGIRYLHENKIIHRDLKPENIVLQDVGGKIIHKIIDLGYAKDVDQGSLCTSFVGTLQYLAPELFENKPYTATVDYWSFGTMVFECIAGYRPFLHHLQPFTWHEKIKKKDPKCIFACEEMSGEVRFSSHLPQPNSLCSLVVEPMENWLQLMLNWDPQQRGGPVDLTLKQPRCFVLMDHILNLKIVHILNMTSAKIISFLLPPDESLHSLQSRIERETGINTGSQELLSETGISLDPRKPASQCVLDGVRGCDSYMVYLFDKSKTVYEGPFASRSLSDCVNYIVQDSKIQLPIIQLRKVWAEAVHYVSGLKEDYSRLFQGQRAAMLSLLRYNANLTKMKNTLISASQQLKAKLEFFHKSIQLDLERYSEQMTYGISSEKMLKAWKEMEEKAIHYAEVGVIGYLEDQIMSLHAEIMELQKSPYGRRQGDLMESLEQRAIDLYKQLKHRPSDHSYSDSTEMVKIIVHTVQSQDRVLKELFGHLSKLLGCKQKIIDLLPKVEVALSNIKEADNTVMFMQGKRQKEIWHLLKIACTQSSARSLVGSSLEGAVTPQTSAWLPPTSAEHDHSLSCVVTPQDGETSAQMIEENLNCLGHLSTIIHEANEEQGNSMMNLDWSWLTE
Inhibitor of NF-kappa-B kinase (IKK), sequence (Q9Y6K9 whole entry): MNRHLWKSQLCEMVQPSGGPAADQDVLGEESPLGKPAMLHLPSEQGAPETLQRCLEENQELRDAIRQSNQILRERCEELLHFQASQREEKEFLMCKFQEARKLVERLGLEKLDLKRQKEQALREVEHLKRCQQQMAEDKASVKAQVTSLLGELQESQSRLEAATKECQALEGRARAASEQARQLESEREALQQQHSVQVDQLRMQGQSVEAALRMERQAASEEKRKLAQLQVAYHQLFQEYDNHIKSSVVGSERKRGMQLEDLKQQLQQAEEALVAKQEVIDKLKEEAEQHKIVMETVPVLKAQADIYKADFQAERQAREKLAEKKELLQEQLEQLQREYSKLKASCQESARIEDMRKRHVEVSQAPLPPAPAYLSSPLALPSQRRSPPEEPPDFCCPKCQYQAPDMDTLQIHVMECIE
Insulin-like growth factor 1 receptor, sequence (P08069 31-736 limits assumed): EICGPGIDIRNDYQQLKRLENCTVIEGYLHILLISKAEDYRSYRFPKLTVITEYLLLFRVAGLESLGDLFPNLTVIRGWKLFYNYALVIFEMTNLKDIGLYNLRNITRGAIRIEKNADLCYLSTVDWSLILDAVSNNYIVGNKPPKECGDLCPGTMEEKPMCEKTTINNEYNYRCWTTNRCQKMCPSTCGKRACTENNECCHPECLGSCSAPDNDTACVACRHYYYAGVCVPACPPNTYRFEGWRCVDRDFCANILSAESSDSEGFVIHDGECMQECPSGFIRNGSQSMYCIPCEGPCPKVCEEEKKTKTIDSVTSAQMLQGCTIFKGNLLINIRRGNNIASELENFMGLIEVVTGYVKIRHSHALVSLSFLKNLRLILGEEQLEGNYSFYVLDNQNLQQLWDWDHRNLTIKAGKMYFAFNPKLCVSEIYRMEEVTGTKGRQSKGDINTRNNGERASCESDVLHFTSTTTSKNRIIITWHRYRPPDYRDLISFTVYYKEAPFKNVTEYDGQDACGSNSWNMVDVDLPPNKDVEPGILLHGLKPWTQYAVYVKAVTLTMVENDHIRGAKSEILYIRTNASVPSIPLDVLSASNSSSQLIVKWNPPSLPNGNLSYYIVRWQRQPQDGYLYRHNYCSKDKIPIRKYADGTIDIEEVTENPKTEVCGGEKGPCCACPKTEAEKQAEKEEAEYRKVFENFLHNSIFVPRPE
Insulin-like growth factor 1 receptor, sequence (P08069 741-1367 limits assumed): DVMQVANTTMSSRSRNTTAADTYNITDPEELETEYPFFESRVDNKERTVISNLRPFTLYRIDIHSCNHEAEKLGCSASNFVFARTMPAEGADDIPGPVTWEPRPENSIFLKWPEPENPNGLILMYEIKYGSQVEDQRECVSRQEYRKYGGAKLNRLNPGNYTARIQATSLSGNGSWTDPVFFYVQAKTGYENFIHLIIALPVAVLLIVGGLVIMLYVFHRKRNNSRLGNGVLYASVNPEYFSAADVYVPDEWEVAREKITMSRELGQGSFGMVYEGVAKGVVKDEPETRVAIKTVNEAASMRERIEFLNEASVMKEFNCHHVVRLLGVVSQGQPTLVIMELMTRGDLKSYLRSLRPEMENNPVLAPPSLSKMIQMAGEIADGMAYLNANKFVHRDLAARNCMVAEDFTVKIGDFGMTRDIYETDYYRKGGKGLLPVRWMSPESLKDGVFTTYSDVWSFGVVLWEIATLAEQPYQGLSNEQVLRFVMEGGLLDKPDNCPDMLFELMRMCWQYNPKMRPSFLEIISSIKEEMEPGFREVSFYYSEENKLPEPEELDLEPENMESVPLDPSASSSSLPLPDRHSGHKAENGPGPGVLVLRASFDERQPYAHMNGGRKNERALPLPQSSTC

C/C(O)=C(\C#N)C(=O)Nc1cc(Br)ccc1Br
Activity (Rattus norvegicus [1]): Non-toxic
Activity (Rattus norvegicus [2]): Non-toxic
IC50 [3]: 61 µM
Activity (Mus musculus [4]): 6.6 10^9/L
Activity (Mus musculus [5]): 4.6 10^9/L
IC50 [6]: > 500 µM
Activity (Mus musculus [7]): 6.2 10^9/L
Activity (Rattus norvegicus [8]): 1.6 10^9/L
Activity (Rattus norvegicus [9]): 12.9 10^9/L
IC50 [10]: > 500 µM
Activity (BT-20): Active
Activity (Mus musculus [11]): 1.6 10^9/L
Activity (Mus musculus [12]): 7 10^9/L
IC50 [13]: 120 µM
Activity (Rattus norvegicus [14]): 11.7 10^9/L
IC50 [15]: > 500 µM
Activity (Rattus norvegicus [16]): Non-toxic
IC50 [17]: 79 µM
Activity (Mus musculus [18]): 7.6 10^9/L
Activity (Mus musculus [19]): 5.4 10^9/L
IC50 [20]: > 500 µM
Activity (PTK1 [21]): Active
IC50 [22]: 240 µM
Activity (Danio rerio [23]): Active
IC50 [24]: > 500 µM
IC50 [25]: > 500 µM
IC50 [26]: 281 µM
Activity (Mus musculus [27]): 1.3 10^9/L
Activity (Mus musculus [28]): Non-toxic
LD10 (Mus musculus [29]): > 11200 mg/kg
IC50 [30]: 267 µM
Activity (Mus musculus [31]): Non-toxic
Activity (Mus musculus [32]): 5.1 10^9/L
Activity (Rattus norvegicus [33]): 11.7 10^9/L
Activity (Mus musculus [34]): Non-toxic
Activity (Mus musculus [35]): Non-toxic
Activity (Rattus norvegicus [36]): Non-toxic
Activity (Mus musculus [37]): Non-toxic
Activity (Mus musculus [38]): 1.7 10^9/L
Activity (Mus musculus [39]): 6.4 10^9/L
Activity (Danio rerio [40]): Active
Activity (Mus musculus [41]): 5.2 10^9/L
Activity (Rattus norvegicus [42]): Non-toxic
Activity (Mus musculus [43]): 7 10^9/L
IC50 [44]: > 500 µM
IC50 [45]: > 500 µM
Activity (PTK1 [46]): Active
IC50 [47]: 125 µM
